Data as given in publication PMC11116414, “Impact of secretin receptor homo-dimerization on natural ligand binding” (Nature Communications, 2024).

What was measured:
[1] = molecular target: Cys7-[Tyr10]secretin(1-27) agonist probe; test: cysteine trapping, autoradiograph densitometry; conditions: intact COS-1 cells, non-reducing 10% SDS-PAGE, n = 3, read off a plot
WT SecR [2] = molecular target: T1, WT SecR (Homo sapiens, UniProt P47872); test: Fluorescence anisotropy of receptor-bound probes, WT SecR; conditions: for Anisotropy: SecR WT, membranes, 50 nM probe, mean ± S.E.M., n = 3; for anisotropy, + GppNHp vs control, in words: WT SecR, 20 and 37 °C
T1 construct: expressed in transfected cells; membranes isolated from CHO-SecR cells
Protocol: (§1) Incubations were terminated by separating receptor-bound ligand from free ligand using centrifugation at 25,000 × g for 10 min at 4 °C. The sample pellet was washed again with ice-cold KRH medium and resuspended in KRH medium for fluorescence measurements. The samples were excited at 481 nm and the emission was collected at 521 nm, with a bandwidth of 5 nm at an integration rate of 0.5 nm/s, and fluorescence intensities were collected by constant wavelength single point analysis using SPEX Fluoromax 3 (Horiba Scientific, Piscataway, NJ) with Origin version 8.1.

WT SecR [3] = molecular target: T1, WT SecR; test: KI collisional fluorescence quenching of receptor-bound probes, WT SecR; conditions: KI quencher, mean ± S.E.M., n = 3
Protocol: as §1
(§2) Fluorescence collisional quenching studies were performed using the hydrophilic quenching reagent, potassium iodide (KI), as described previously. Fluorescence intensities of receptor-bound probes were collected by exciting samples at 481 nm using Fluoromax-3 spectrofluorometer single point measurement by Origin version 8.1. […] The effect of ionic strength was determined by measuring fluorescence intensities in potassium chloride. […] The Stern–Volmer quenching constant, KSV, was calculated from the slope of Fo/F as a function of the quencher concentration [I^−].

SecR(G264A,I268A) [4] = molecular target: T2, SecR(G264A,I268A) (Homo sapiens, UniProt P47872, G264A/I268A); test: Fluorescence anisotropy of receptor-bound probes, mutant SecR; conditions: membranes, 50 nM probe, mean ± S.E.M., n = 3
T2 construct: expressed in transfected cells; membranes isolated from these cells
Protocol: as §1

SecR(G264A,I268A) [5] = molecular target: T2, SecR(G264A,I268A); test: KI collisional fluorescence quenching of receptor-bound probes, mutant SecR; conditions: KI quencher, mean ± S.E.M., n = 3
Protocol: as §1, §2

[6] = molecular target: Cys6-[Tyr10]secretin(1-27) agonist probe; test: cysteine trapping, autoradiograph densitometry; conditions: intact COS-1 cells, non-reducing 10% SDS-PAGE, n = 5, read off a plot
[7] = molecular target: Cys2-[Tyr10]secretin(1-27) agonist probe; test: cysteine trapping, autoradiograph densitometry; conditions: ECL2 series; intact COS-1 cells; non-reducing 10% SDS-PAGE; n = 4; read off a plot
[8] = control, 20 °C, KRH pH 7.4, ex 481 nm
[9] = control, 37 °C, KRH pH 7.4, ex 481 nm
[10] = +GppNHp (uncoupled state, 10 µM)
[11] = -GppNHp (active state), 50 nM probe, ex 481/em 521 nm

T2 sequence (P47872 23-440 G264A/I268A): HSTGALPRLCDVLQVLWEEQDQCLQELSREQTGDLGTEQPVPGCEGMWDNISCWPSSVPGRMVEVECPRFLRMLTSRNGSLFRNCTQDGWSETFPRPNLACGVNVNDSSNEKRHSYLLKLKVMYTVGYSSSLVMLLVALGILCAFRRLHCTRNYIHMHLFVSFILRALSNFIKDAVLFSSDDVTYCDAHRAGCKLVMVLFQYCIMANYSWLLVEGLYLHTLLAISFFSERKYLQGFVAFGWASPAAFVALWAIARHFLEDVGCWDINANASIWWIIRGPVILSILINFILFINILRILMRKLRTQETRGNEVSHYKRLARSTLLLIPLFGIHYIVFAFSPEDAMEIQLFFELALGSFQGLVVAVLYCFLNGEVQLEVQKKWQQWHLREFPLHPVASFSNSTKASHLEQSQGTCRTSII
T1 sequence (P47872 23-440): as the sequence (P47872 23-440 G264A/I268A) above, with A242G, A246I counted along it

Molecule	Anisotropy (WT SecR [2]; +GppNHp (10 µM), 20 °C)	Anisotropy (WT SecR [2]; +GppNHp (10 µM), 37 °C)	Anisotropy (WT SecR [2]; [8])	Anisotropy (WT SecR [2]; [9])	Stern-Volmer quenching constant (Ksv) (WT SecR [3]; [10])	Stern-Volmer quenching constant (Ksv) (WT SecR [3]; [11])	Anisotropy (SecR(G264A,I268A) [4]; +GppNHp (10 µM), 20 °C)	Anisotropy (SecR(G264A,I268A) [4]; +GppNHp (10 µM), 37 °C)	Anisotropy (SecR(G264A,I268A) [4]; control, 20 °C)	Anisotropy (SecR(G264A,I268A) [4]; control, 37 °C)	Stern-Volmer quenching constant (Ksv) (SecR(G264A,I268A) [5]; [10])	Stern-Volmer quenching constant (Ksv) (SecR(G264A,I268A) [5]; -GppNHp (active state))	other results
human wild type secretin receptor (SecR WT) (from UniProt P47872) G264A; I268A; I288C	–	–	–	–	–	–	–	–	–	–	–	–	other: receptor labeling (% of maximum signal) (% of maximum signal) ([1]; ECL2 series): 68
CC(C)C[C@H](NC(=O)CNC(=O)[C@H](CCC(N)=O)NC(=O)[C@H](CC(C)C)NC(=O)[C@H](CC(C)C)NC(=O)[C@H](CCCNC(=N)N)NC(=O)[C@H](CCC(N)=O)NC(=O)[C@H](CC(C)C)NC(=O)[C@H](CCCNC(=N)N)NC(=O)[C@H](C)NC(=O)CNC(=O)[C@H](CCC(=O)O)NC(=O)[C@H](CCCNC(=N)N)NC(=O)[C@H](CCCCNC(=O)c1ccc(-c2c3ccc(=N)c(S(=O)(=O)O)c-3oc3c(S(=O)(=O)O)c(N)ccc23)c(C(=O)O)c1)NC(=O)[C@H](CCCNC(=N)N)NC(=O)[C@H](CO)NC(=O)[C@H](CC(C)C)NC(=O)[C@H](CCC(=O)O)NC(=O)[C@H](CO)NC(=O)[C@@H](NC(=O)[C@H](Cc1ccccc1)NC(=O)[C@@H](NC(=O)CNC(=O)[C@H](CC(=O)O)NC(=O)[C@H](CO)NC(=O)[C@@H](N)Cc1c[nH]cn1)[C@@H](C)O)[C@@H](C)O)C(=O)N[C@H](C(N)=O)C(C)C [(Lys^13-Alexa^488)Sec]	0.20 ± 0.02	0.12 ± 0.01	0.14 ± 0.01	0.06 ± 0.01	3.9±02	7.9±0.6	0.20 ± 0.01	0.11 ± 0.01	0.18 ± 0.02	0.11 ± 0.01	4.5±0.9	5.2±0.4	anisotropy, + GppNHp vs control, in words (WT SecR [2]): higher anisotropy after treatment with GppNHp than the control state
CC(C)C[C@H](NC(=O)CNC(=O)[C@H](CCC(N)=O)NC(=O)[C@H](CC(C)C)NC(=O)[C@H](CCCCNC(=O)c1ccc(-c2c3ccc(=N)c(S(=O)(=O)O)c-3oc3c(S(=O)(=O)O)c(N)ccc23)c(C(=O)O)c1)NC(=O)[C@H](CCCNC(=N)N)NC(=O)[C@H](CCC(N)=O)NC(=O)[C@H](CC(C)C)NC(=O)[C@H](CCCNC(=N)N)NC(=O)[C@H](C)NC(=O)CNC(=O)[C@H](CCC(=O)O)NC(=O)[C@H](CCCNC(=N)N)NC(=O)[C@H](CC(C)C)NC(=O)[C@H](CCCNC(=N)N)NC(=O)[C@H](CO)NC(=O)[C@H](CC(C)C)NC(=O)[C@H](CCC(=O)O)NC(=O)[C@H](CO)NC(=O)[C@@H](NC(=O)[C@H](Cc1ccccc1)NC(=O)[C@@H](NC(=O)CNC(=O)[C@H](CC(=O)O)NC(=O)[C@H](CO)NC(=O)[C@@H](N)Cc1c[nH]cn1)[C@@H](C)O)[C@@H](C)O)C(=O)N[C@H](C(N)=O)C(C)C [(Lys^22-Alexa^488)Sec]	0.20 ± 0.02	0.12 ± 0.01	0.14 ± 0.01	0.06 ± 0.01	4.5±0.2	8.9±1.0	0.19 ± 0.01	0.12 ± 0.01	0.18 ± 0.01	0.10 ± 0.01	4.3±0.2	6.1±0.3	anisotropy, + GppNHp vs control, in words (WT SecR [2]): higher anisotropy after treatment with GppNHp than the control state
human wild type secretin receptor (SecR WT) (from UniProt P47872) G264A; I268A; L374C	–	–	–	–	–	–	–	–	–	–	–	–	other: receptor labeling (% of maximum signal) (% of maximum signal) ([6]; ECL3 series): 77; other: receptor labeling (% of maximum signal) (% of maximum signal) ([1]; ECL3 series): 88
CC(C)C[C@H](NC(=O)CNC(=O)[C@H](CCC(N)=O)NC(=O)[C@H](CC(C)C)NC(=O)[C@H](CC(C)C)NC(=O)[C@H](CCCNC(=N)N)NC(=O)[C@H](CCC(N)=O)NC(=O)[C@H](CC(C)C)NC(=O)[C@H](CCCNC(=N)N)NC(=O)[C@H](C)NC(=O)CNC(=O)[C@H](CCC(=O)O)NC(=O)[C@H](CCCNC(=N)N)NC(=O)[C@H](CC(C)C)NC(=O)[C@H](CCCNC(=N)N)NC(=O)[C@H](CO)NC(=O)[C@H](CC(C)C)NC(=O)[C@H](CCC(=O)O)NC(=O)[C@H](CO)NC(=O)[C@@H](NC(=O)[C@H](Cc1ccccc1)NC(=O)[C@@H](NC(=O)CNC(=O)[C@H](CC(=O)O)NC(=O)[C@H](CO)NC(=O)[C@@H](N)Cc1c[nH]cn1)[C@@H](C)O)[C@@H](C)O)C(=O)N[C@H](C(=O)NCC(=O)N[C@@H](CSC1CC(=O)N(CCCCCNC(=O)c2ccc(-c3c4ccc(=N)c(S(=O)(=O)O)c-4oc4c(S(=O)(=O)O)c(N)ccc34)c(C(=O)O)c2)C1=O)C(N)=O)C(C)C (stereo partly drawn) [Sec-Gly^28-(Cys^29-Alexa^488)]	0.13 ± 0.01	0.08 ± 0.01	0.13 ± 0.01	0.08 ± 0.01	4.9±0.4	6.2±0.7	0.15 ± 0.01	0.1 ± 0.01	0.13 ± 0.01	0.09 ± 0.01	4.2±0.8	5.6±1.1	–
human wild type secretin receptor (SecR WT) (from UniProt P47872) G264A; I268A; A359C	–	–	–	–	–	–	–	–	–	–	–	–	other: receptor labeling (% of maximum signal) (% of maximum signal) ([1]; ECL3 series): 85
human wild type secretin receptor (SecR WT) (from UniProt P47872) G264A; I268A; W295C	–	–	–	–	–	–	–	–	–	–	–	–	other: receptor labeling (% of maximum signal) (% of maximum signal) [7]: 93; other: receptor labeling (% of maximum signal) (% of maximum signal) ([1]; ECL2 series): 83
human wild type secretin receptor (SecR WT) (from UniProt P47872) G264A; I268A; W296C	–	–	–	–	–	–	–	–	–	–	–	–	other: receptor labeling (% of maximum signal) (% of maximum signal) ([6]; ECL2 series): 68
